Experimental data as given in ChEMBL document CHEMBL1147602, “DNA binding ligands targeting drug-resistant Gram-positive bacteria. Part 1: Internal benzimidazole derivatives” (Bioorg Med Chem Lett, 2004).
≈ marks a conversion by molar mass, not a printed value. Where “and” joins values, the source holds several entries; their conditions need not be identical. Identical values can stand only once. Calls of active or inactive are those of the source. No cut-off for these calls is given here.

Legend:
Nucleic Acid = assay: Dissociation constant for the DNA binding was determined by quantitative DNase I footprint titration; type: nucleic-acid assay
Enterococcus faecalis [1] = assay: Antibacterial activity against vancomycin-resistant Enterococcus faecalis ATCC 51559 strain; NA means not analyzed; type: functional, organism-based
Escherichia coli = assay: Antibacterial activity against Escherichia coli ATCC 25922 strain; type: functional
Streptococcus pneumoniae [2] = assay: Antibacterial activity against penicillin-sensitive Streptococcus pneumoniae ATCC 49619 strain; type: functional
Staphylococcus aureus [3] = assay: Antibacterial activity against methicillin-resistant Staphylococcus aureus ATCC 27660 strain; type: functional
Staphylococcus aureus [4] = assay: Antibacterial activity against methicillin-sensitive Staphylococcus aureus ATCC 13709 strain; type: functional
Streptococcus pneumoniae [5] = assay: Antibacterial activity against penicillin-resistant Streptococcus pneumoniae ATCC 51422 strain; NA means not analyzed; type: functional, organism-based
Enterococcus faecalis [6] = assay: Antibacterial activity against vancomycin-sensitive Enterococcus faecalis ATCC 29212 strain; type: functional
Enterococcus faecalis [7] = assay: Antibacterial activity against vancomycin-resistant Enterococcus faecalis ATCC 51559 strain; type: functional
Streptococcus pneumoniae [8] = assay: Antibacterial activity against penicillin-resistant Streptococcus pneumoniae ATCC 51422 strain; type: functional
Moraxella catarrhalis = assay: Antibacterial activity against Moraxella catarrhalis ATCC 25238 strain; type: functional
Pseudomonas aeruginosa = assay: Antibacterial activity against Pseudomonas aeruginosa (ATCC 27853) strain; inactive; type: functional
Haemophilus influenzae = assay: Antibacterial activity against Haemophilus influenzae ATCC 78025 strain; type: functional
Mus musculus = assay: In vivo protective dose for efficacy against a lethal infection of methicillin-resistant Staphylococcus aureus in a mouse peritoneal sepsis model administered intravenously; type: functional
Staphylococcus aureus [9] = assay: Antibacterial activity against methicillin-susceptible Staphylococcus aureus ATCC 13709 strain; type: functional
Enterococcus faecalis [10] = assay: Antibacterial activity against vancomycin-susceptible Enterococcus faecalis ATCC 29212 strain; type: functional
Staphylococcus aureus [11] = assay: Antibacterial activity against methicillin-susceptible Staphylococcus aureus ATCC 13709 strain; (Range is 1-2 ug/mL); type: functional

MIC (Enterococcus faecalis [10])	MIC (Staphylococcus aureus [11])	SMILES	Kd (Nucleic Acid)	MIC (Enterococcus faecalis [1])	MIC (Escherichia coli)	MIC (Streptococcus pneumoniae [2])	MIC (Staphylococcus aureus [3])	MIC (Staphylococcus aureus [4])	MIC (Streptococcus pneumoniae [5])	MIC (Enterococcus faecalis [6])	MIC (Enterococcus faecalis [7])	MIC (Streptococcus pneumoniae [8])	MIC (Moraxella catarrhalis)	MIC (Pseudomonas aeruginosa)	MIC (Haemophilus influenzae)	Protective dose (Mus musculus)	MIC (Staphylococcus aureus [9])
		Cn1cc(NC(=O)c2sccc2Cl)cc1-c1nc2cc(C(=O)NCCN3CCOCC3)ccc2[nH]1	~500 nM	inactive	> 32 µg/mL	4 µg/mL (≈ 7.8 µM)	8 µg/mL (≈ 15.6 µM)	8 µg/mL (≈ 15.6 µM)	inactive	4 µg/mL (≈ 7.8 µM)							
		Cn1cc(NC(=O)c2sc3ccccc3c2Cl)cc1C(=O)Nc1cc(-c2nc3cc(C(=O)NCCN4CCOCC4)ccc3[nH]2)n(C)c1			> 32 µg/mL	0.13 µg/mL (≈ 0.19 µM)	0.5 µg/mL (≈ 0.73 µM)	0.13 µg/mL (≈ 0.19 µM)		0.25 µg/mL (≈ 0.365 µM)	0.25 µg/mL (≈ 0.365 µM)	0.13 µg/mL (≈ 0.19 µM)					
		Cn1cc(NC(=O)c2sccc2Cl)cc1C(=O)Nc1cc(-c2nc3cc(C(=O)NCCN4CCSCC4)ccc3[nH]2)n(C)c1			> 32 µg/mL	0.13 µg/mL (≈ 0.2 µM)	0.5 µg/mL (≈ 0.768 µM)	1 µg/mL (≈ 1.54 µM)		0.13 µg/mL (≈ 0.2 µM)	0.13 µg/mL (≈ 0.2 µM)	0.06 µg/mL (≈ 0.0921 µM)					
		Cn1cc(NC(=O)c2ccc(Cl)cc2F)cc1-c1nc2cc(C(=O)NCCN3CCOCC3)ccc2[nH]1			> 32 µg/mL	0.03 µg/mL (≈ 0.0571 µM)	0.25 µg/mL (≈ 0.476 µM)	0.13 µg/mL (≈ 0.248 µM)		0.03 µg/mL (≈ 0.0571 µM)	0.06 µg/mL (≈ 0.114 µM)	0.03 µg/mL (≈ 0.0571 µM)					
		Cn1cc(NC(=O)c2cc3cc4c(cc3s2)OCO4)cc1-c1nc2cc(C(=O)NCCN3CCOCC3)ccc2[nH]1			0.5 µg/mL (≈ 0.873 µM)	0.06 µg/mL (≈ 0.105 µM)	0.03 µg/mL (≈ 0.0524 µM)	0.03 µg/mL (≈ 0.0524 µM)		0.03 µg/mL (≈ 0.0524 µM)	0.03 µg/mL (≈ 0.0524 µM)	0.06 µg/mL (≈ 0.105 µM)	0.031 µg/mL (≈ 0.0541 µM)	32 µg/mL (≈ 55.9 µM)	0.06 µg/mL (≈ 0.105 µM)		
		Cn1cc(NC(=O)c2cc3ccccc3cn2)cc1-c1nc2cc(C(=O)NCCN3CCOCC3)ccc2[nH]1	~10 nM		> 32 µg/mL	0.25 µg/mL (≈ 0.477 µM)	0.5 µg/mL (≈ 0.955 µM)	0.5 µg/mL (≈ 0.955 µM)		0.5 µg/mL (≈ 0.955 µM)	1 µg/mL (≈ 1.91 µM)	0.5 µg/mL (≈ 0.955 µM)					
1 µg/mL (≈ 1.56 µM)	2 µg/mL (≈ 3.12 µM)	Cn1cc(NC(=O)c2cc(NC(=O)c3cc(NC(=O)c4sccc4Cl)cn3C)cn2C)cc1C(=O)NCCN1CCOCC1			> 32 µg/mL	0.13 µg/mL (≈ 0.203 µM)											
		Cn1cc(NC(=O)c2sccc2Cl)cc1C(=O)Nc1cc(-c2nc3cc(C(=O)NCCN4CCCCC4)ccc3[nH]2)n(C)c1			> 32 µg/mL	0.25 µg/mL (≈ 0.395 µM)	0.5 µg/mL (≈ 0.79 µM)	2 µg/mL (≈ 3.16 µM)		0.5 µg/mL (≈ 0.79 µM)	0.5 µg/mL (≈ 0.79 µM)	0.13 µg/mL (≈ 0.205 µM)					
0.25 µg/mL (≈ 0.394 µM)		Cn1cc(NC(=O)c2ccc3[nH]c(-c4cc(NC(=O)c5sccc5Cl)cn4C)nc3c2)cc1C(=O)NCCN1CCOCC1			> 32 µg/mL	0.25 µg/mL (≈ 0.394 µM)											0.13 µg/mL (≈ 0.205 µM)
		Cn1cc(NC(=O)c2ccc(Cl)cc2F)cc1C(=O)Nc1cc(-c2nc3cc(C(=O)NCCN4CCOCC4)ccc3[nH]2)n(C)c1			8 µg/mL (≈ 12.4 µM)	0.03 µg/mL (≈ 0.0464 µM)	0.13 µg/mL (≈ 0.201 µM)	0.25 µg/mL (≈ 0.386 µM)		0.03 µg/mL (≈ 0.0464 µM)	0.13 µg/mL (≈ 0.201 µM)	0.13 µg/mL (≈ 0.201 µM)					
		Cn1cc(NC(=O)c2sc3ccccc3c2Cl)cc1-c1nc2cc(C(=O)NCCN3CCOCC3)ccc2[nH]1			> 32 µg/mL	0.13 µg/mL (≈ 0.231 µM)	0.13 µg/mL (≈ 0.231 µM)	0.25 µg/mL (≈ 0.444 µM)		0.5 µg/mL (≈ 0.888 µM)	0.25 µg/mL (≈ 0.444 µM)	0.25 µg/mL (≈ 0.444 µM)					
		Cn1cc(NC(=O)c2ccc(F)cc2F)cc1C(=O)Nc1cc(-c2nc3cc(C(=O)NCCN4CCOCC4)ccc3[nH]2)n(C)c1			4 µg/mL (≈ 6.34 µM)	0.06 µg/mL (≈ 0.0951 µM)	0.13 µg/mL (≈ 0.206 µM)	0.25 µg/mL (≈ 0.396 µM)		0.06 µg/mL (≈ 0.0951 µM)	0.25 µg/mL (≈ 0.396 µM)	0.06 µg/mL (≈ 0.0951 µM)					

SMILES	MIC (Enterococcus faecalis [10])	MIC (Staphylococcus aureus [11])	Kd (Nucleic Acid)	MIC (Enterococcus faecalis [1])	MIC (Escherichia coli)	MIC (Streptococcus pneumoniae [2])	MIC (Staphylococcus aureus [3])	MIC (Staphylococcus aureus [4])	MIC (Streptococcus pneumoniae [5])	MIC (Enterococcus faecalis [6])	MIC (Enterococcus faecalis [7])	MIC (Streptococcus pneumoniae [8])	MIC (Moraxella catarrhalis)	MIC (Pseudomonas aeruginosa)	MIC (Haemophilus influenzae)	Protective dose (Mus musculus)	MIC (Staphylococcus aureus [9])
Cn1cc(NC(=O)c2sccc2Cl)cc1C(=O)Nc1cc(-c2nc3cc(C(=O)NCCN4CCOCC4)ccc3[nH]2)n(C)c1	0.25 µg/mL (≈ 0.394 µM)		< 0.1 nM		4 µg/mL (≈ 6.3 µM)	0.25 µg/mL (≈ 0.394 µM)	0.25 µg/mL (≈ 0.394 µM)				0.13 µg/mL (≈ 0.205 µM)	0.03 µg/mL (≈ 0.0472 µM)				50 mg/kg and 20 mg/kg	0.25 µg/mL (≈ 0.394 µM)
